The test system of one data set is RSV B Washington strain. Kind of data set: RSV B induced CPE in HEp2 cells. The settings on record: human respiratory syncytial virus; for pIC50: HEp-2, 144 h, 6 days; for inhibition at 1 µg/mL: HEp-2, at 1 μg/mL. Format: cell-based. The protocol:
(§1) HEp2 cells were seeded (10^3/well/50 μL) in 384-well plates (Catalogue number 353962, BD Falcon, Oxford, UK) in 5% FBS-DMEM (containing 2 mM L-glutamine and 1 mM sodium pyruvate) one day before infection. […] Simultaneously, test compounds (0.5 μL DMSO solution) were added to 100 μL of HEp2 cell culture with virus solution to provide a final DMSO solution of 0.5%. […] Sigma-Aldrich, Dorset, UK) was added to each well and the plate incubated for a further 6 hr (37° C./5% CO2). The fluorescence of each well [545 nm (excitation)/590 nm (emission)] was determined using a multi-scanner (Clariostar: BMG, Buckinghamshire, UK). The percentage inhibition for each well was calculated and the IC50, IC75 and IC90 values were calculated from the concentration-response curve generated for each test compound.

Data set [1] can be described thus: Cell viability: resazurin assay. Format: cell-based. The settings on record: human, HEp2 cells. The protocol: HEp2 cells were seeded in 384-well plates (10^3/well/50 μL; BD Falcon Ref 353962) in FBS DMEM (5%, containing 2 mM L-glutamine and 1 mM sodium pyruvate) one day before experimentation. Serum-free DMEM (50 μL) was added to test wells, while for control wells the media was removed and sterile water (100 μL) added. Test compounds (0.5 μL DMSO solution) were added to give a final DMSO concentration of 0.5%. HEp2 cells were incubated with each test compound for 5 days (37° C./5% CO2 in 2.5% FBS) and then resazurin stock solution (5 μL; 0.03%) was added to each well and the plate incubated for a further 6 hr (37° C./5% CO2). The fluorescence of each well at 545 nm (excitation) and 590 nm (emission) was determined using a multi-scanner (Clariostar: BMG Labtech). The percentage loss of cell viability was calculated for each well relative to vehicle (0.5% DMSO) treatment. Note that any apparent increase in cell viability associated with test compound treatment relative to vehicle is consequently tabulated as a negative percentage. Where appropriate, a CC50 value was calculated from the concentration-response curve generated from the concentration-response curve for each test compound.

The test system of a further data set is RSV A2 strain. Kind of data set: RSV A2 induced CPE in HEp2 cells. The format is cell-based. The settings on record: human respiratory syncytial virus; for pIC50: HEp-2, 120 h, 5 days; for inhibition at 0.01 µg/mL: HEp-2, at 0.01 μg/mL. The protocol:
as §1

For another data set, the system named is hRSV/A/Long. The data set can be described thus: RSV infection in cotton rats: viral titre in lung (plaque assay).
Another data set relates to RSV A2. Kind of data set: Virus titre in air-liquid interface (ALI) cultured bronchial epithelial cells. The settings on record: for Virus titre in apical wash, geometric mean: late intervention (days 3-7), 0.1 mg/mL.
Where [2] appears, read: intranasal, 1.0 mg/mL, day 4 post infection.

The structures appear in SMILES notation. pIC50: −log10 of the molar value.

The pIC50 is −log10 of the IC50, conventionally taken in molar units. A higher pIC50 goes with a small IC50. In general, inhibition refers to the share of the control response that was lost under treatment. The CC50 is the concentration giving 50% cytotoxicity. The low end stands for greater toxicity to the cells, the high end for lower toxicity to the cells.

Procedure for hRSV/A/Long: Male Sigmodon hispidus cotton rats between 6 and 8 weeks of age were infected with hRSV/A/Long (ATCC, Manassas, Va.; 10^5 pfu) in a volume of 0.1 mL of sucrose stabilizing media. Test compounds were dissolved in 100% DMSO (at 3.3, 10, 33 and 100 mg/mL), then diluted (1:10 in isotonic saline to achieve 10% DMSO in all treatments) and sonicated to produce suspensions which were administered intranasally (50 μL) by pipette 4 hr before infection (on day 0), and then on days 1, 2 and 3 post infection. Four days after RSV challenge, the animals were euthanised and the lungs removed.
The supernatants of lung homogenates were diluted 1:10 and 1:100 in Eagle (E)-MEM. Confluent HEp2 monolayers in 24-well plates were infected in duplicate (50 μL of sample per well) starting with undiluted (neat) samples followed by diluted homogenates. After incubation for 1 hr (37° C./5% CO2) wells were overlaid with 0.75% methylcellulose medium and plates replaced in the 37° C. incubator. After incubation (for 4 days), the overlay was removed, the cells fixed with 0.1% crystal violet stain (for 1 hr) and then rinsed and air-dried. Plaques were counted and viral titers were expressed as plaque forming units per gram (pfu.g^−1) of tissue.

Turning to `Cc1cnc(N2CC3(CCOCC3)C2)c(C(=O)Nc2ccc(C(=O)N3CCc4cc(C(=O)Nc5c(F)cccc5Cl)sc4-c4sccc43)cc2)c1` [Example 12, N-(2-chloro-6-fluorophenyl)-4-(4-(5-methyl-2-(7-oxa-2-azaspiro[3.5]nonan-2-yl)nicotinamido)benzoyl)-5,6-dihydro-4H-dithieno[3,2-b:2′,3′-d]azepine-8-carboxamide], the figures for the pIC50 in the data set on RSV B Washington strain and in the data set with RSV A2 strain were 8.51 and 9.85, respectively. Also, in the data set on RSV B Washington strain, the inhibition at 1 µg/mL was found to be 97%. The compound further yielded a CC50 at 5 days in data set [1] greater than 13500 nM. In addition, the inhibition at 0.01 µg/mL with RSV A2 strain was determined as 84%. Besides, the “reduction of virus titre” value in the data set on hRSV/A/Long (intra-nasal dosing at 1 mg/ml) is listed as 0.7 log. The “Virus titre in lung, Geometric Mean” value with hRSV/A/Long (setting [2]) is given as 4.5 log, PFU/lung. Moreover, the “Virus titre in lung, Median” value with hRSV/A/Long (setting [2]) is 4.5 log, PFU/lung. Moreover, the “Virus titre in apical wash, geometric mean” value in the data set with RSV A2 (day 0) is 0 log PFU/mL; with RSV A2 (day 1), 2.57 log PFU/mL; with RSV A2 (day 2), 4.86 log PFU/mL; with RSV A2 (day 3) it was 5.27 log PFU/mL; in the data set with RSV A2 (day 4) it was 4.71 log PFU/mL; with RSV A2 (day 5), 3.45 log PFU/mL. The “Virus titre in apical wash, geometric mean” value in the data set with RSV A2 (day 6) is 2.62 log PFU/mL; with RSV A2 (day 7), 1.22 log PFU/mL. The “inhibition of virus titre in ALI culture (in words)” value in the data set with RSV A2 (late stage intervention) was “completely inhibited virus titre”.
On to `O=C(Nc1c(F)cccc1F)c1cc2c(s1)-c1sccc1N(C(=O)c1ccc(NC(=O)c3cccnc3N3CC4(COC4)C3)cc1)CC2` [Example 31, 4-(4-(2-(2-oxa-6-azaspiro[3.3]heptan-6-yl)nicotin-amido)benzoyl)-N-(2,6-difluorophenyl)-5,6-dihydro-4H-dithieno[3,2-b:2′,3′-d]azepine-8-carboxamide], for which, in the data set with RSV B Washington strain, the negative logarithm of the IC50 (pIC50) is 5.98 and testing at 1 µg/mL gave an inhibition of 57%. For the same compound, the CC50 at 5 days in data set [1] is greater than 14600 nM. In the data set with RSV A2 strain, the pIC50 was 7.97 and testing at 0.01 µg/mL gave an inhibition of 62%.
In the data set with RSV B Washington strain, `Cc1cnc(N2CC3(COC3)C2)c(C(=O)Nc2ccc(C(=O)N3CCc4cc(C(=O)Nc5c(F)cccc5F)sc4-c4sccc43)cc2)c1` [Example 32, N-(2,6-difluorophenyl)-4-(4-(5-methyl-2-(2-oxa-6-azaspiro[3.3]heptan-6-yl)nicotinamido)benzoyl)-5,6-dihydro-4H-dithieno[3,2-b:2′,3′-d]azepine-8-carboxamide] showed a pIC50 of 6.22 and an inhibition at 1 µg/mL of 90%. The half-maximal cytotoxic concentration (CC50) at 5 days in data set [1] was greater than 14300 nM. For the same compound, in the data set with RSV A2 strain, the pIC50 is 9.23 and at 0.01 µg/mL the inhibition was 100%.
On the same counts, the results for `O=C(Nc1c(F)cccc1F)c1cc2c(s1)-c1sccc1N(C(=O)c1ccc(NC(=O)c3cccnc3N3CCC4(CCOCC4)CC3)cc1)CC2` [Example 33, 4-(4-(2-(3-oxa-9-azaspiro[5.5]undecan-9-yl)nicotin amido)benzoyl)-N-(2,6-difluorophenyl)-5,6-dihydro-4H-dithieno[3,2-b:2′,3′-d]azepine-8-carboxamide] are less than 5.87, 23%, greater than 13500 nM, 8.85 and 100%.
In the data set with RSV B Washington strain, `Cc1cnc(N2CCC3(CCOCC3)CC2)c(C(=O)Nc2ccc(C(=O)N3CCc4cc(C(=O)Nc5c(F)cccc5F)sc4-c4sccc43)cc2)c1` [Example 34, N-(2,6-difluorophenyl)-4-(4-(5-methyl-2-(3-oxa-9-azaspiro[5.5]undecan-9-yl)nicotinamido)benzoyl)-5,6-dihydro-4H-dithieno[3,2-b:2′,3′-d]azepine-8-carboxamide] had a negative-log IC50 (pIC50) of less than 5.88 and an inhibition at 1 µg/mL of 9%. Besides, in data set [1], the CC50 at 5 days was greater than 13300 nM. In the data set with RSV A2 strain, this compound showed a pIC50 of 8.36 and an inhibition at 0.01 µg/mL of 100%.

These data come from US10626126B2, “Compounds” (Pulmocide Limited, priority 2016, dated 2020).
